What was measured:
JAK1 = JAK1 (Homo sapiens (Human), UniProt P23458); assay: Jak Biochemical HTRF Assay (JAK1); details: recombinant purified GST-tagged catalytic domain; HTRF; [ATP] 31.8 μM; [E] 1.405 nM
Experimental: (§1) Jak Biochemical HTRF Assay Protocol
(§2) The ability of compounds to inhibit the activity of JAK1, JAK2, JAK3, and Tyk2 was measured using a recombinant purified GST-tagged catalytic domain for each enzyme (Invitrogen JAK1 #M4290, JAK2 #M4290, JAK3 #M4290, Tyk2 #M4290) in an HTRF format biochemical assay. […] The basic assay protocol is as follows: First, 250 nL of diluted compounds in DMSO were dispensed into the wells of a dry 384-well Black plate (Greiner #781076) using a Labcyte Echo 555 acoustic dispenser. Subsequent reagent additions employed an Agilent Bravo. Next, 18 μL of 1.11× enzyme and 1.11× substrate in 1× assay buffer (Invitrogen kinase buffer # PV3189, 2 mM DTT, 0.05% BSA) were added to the wells and shaken and then preincubated for 30 minutes at room temperature to allow compound binding to equilibrate. After equilibration, 2 μL of 10×ATP in 1× assay buffer was added to initiate the kinase reaction and the plates were shaken and then incubated at room temperature for 120 minutes. At the end of the incubation, 20 μL of 2× stop buffer (streptavidin-Dylight 650 (Thermo #84547B/100 mL), Eu-tagged pY20 antibody (Perkin Elmer #AD0067), EDTA, HEPES, and Triton) was added to quench the reaction. Plates were shaken and centrifuged and then incubated 60 minutes at room temperature and then read on a Perkin Elmer Envision (Xex=337 nm, λem=665 and 615 nm, TRF delay time=20 μs). HTRF signal=10,000*665 nm reading/615 nm reading. After normalization to untreated controls, the percent inhibition of the HTRF signal at each compound concentration was calculated. The plot of percent inhibition versus the log of compound concentration was fit with a 4-parameter dose response equation to calculate IC50 values.

JAK2 = JAK2 (Homo sapiens (Human), UniProt O60674); assay: Jak Biochemical HTRF Assay (JAK2); details: recombinant purified GST-tagged catalytic domain, [ATP] 8.5 μM, [E] 0.052 nM
Experimental: as §1, §2

JAK2, sequence (O60674 849-1124): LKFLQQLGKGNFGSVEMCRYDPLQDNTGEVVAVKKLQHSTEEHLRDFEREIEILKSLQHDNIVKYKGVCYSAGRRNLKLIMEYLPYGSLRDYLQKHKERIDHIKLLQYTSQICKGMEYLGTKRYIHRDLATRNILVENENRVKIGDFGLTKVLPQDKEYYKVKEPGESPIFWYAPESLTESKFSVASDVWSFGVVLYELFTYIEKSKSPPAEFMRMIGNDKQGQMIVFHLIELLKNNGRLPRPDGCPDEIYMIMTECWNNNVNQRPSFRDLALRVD
JAK1, sequence (P23458 875-1153): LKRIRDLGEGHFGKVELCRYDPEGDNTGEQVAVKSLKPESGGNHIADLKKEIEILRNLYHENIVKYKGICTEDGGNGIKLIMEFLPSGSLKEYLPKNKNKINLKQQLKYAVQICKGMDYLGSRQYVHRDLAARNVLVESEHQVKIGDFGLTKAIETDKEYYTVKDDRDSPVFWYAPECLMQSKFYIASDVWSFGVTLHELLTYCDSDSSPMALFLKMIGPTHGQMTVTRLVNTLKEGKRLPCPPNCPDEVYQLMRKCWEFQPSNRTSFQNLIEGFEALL

| Structure (SMILES) | IC50 (JAK1) | IC50 (JAK2) |
| --- | --- | --- |
| CCC1(n2nc(Nc3ccc(C(=O)N4CCC(N5CCSCC5)CC4)c(C)c3)c3c(=O)[nH]ccc32)CCN(C(=O)OC(C)(C)C)CC1 [Example 3-12, tert-butyl 4-ethyl-4-[3-({3-methyl-4-[(4-thiomorpholin-4-ylpiperidin-1-yl)carbonyl]phenyl}amino)-4-oxo-4,5-dihydro-1H-pyrazolo[4,3-c]pyridin-1-yl] piperidine-1-carboxylate] | 0.56 nM | 0.68 nM |
| CCc1cc(Nc2nn(C3(CC)CCN(C(=O)OC(C)(C)C)CC3)c3cc[nH]c(=O)c23)ccc1C(=O)N1CCOCC1 [Example 2-24, tert-butyl 4-ethyl-4-(3-((3-ethyl-4-(morpholine-4-carbonyl)phenyl)amino)-4-oxo-4,5-dihydro-1H-pyrazolo[4,3-c]pyridin-1-yl) piperidine-1-carboxylate] | 0.47 nM | 0.84 nM |
| CCC1(n2nc(Nc3ccc(C(=O)N4CCOC[C@H]4C(C)C)c(C)c3)c3c(=O)[nH]ccc32)CCN(C(=O)OC(C)(C)C)CC1 [Example 3-8, tert-butyl 4-ethyl-4-{3-[(3-methyl-4-{[(3R)-3-(1-methylethyl)morpholin-4-yl]carbonyl}phenyl)amino]-4-oxo-4,5-dihydro-1H-pyrazolo[4,3-0]pyridin-1-yl} piperidine-1-carboxylate] | 0.93 nM | 1.01 nM |
| CCC1(n2nc(Nc3ccc(C(=O)N4CCO[C@@H](C)C4)c(C)c3)c3c(=O)[nH]ccc32)CCN(C(=O)OC(C)(C)C)CC1 [Example 2-8, (5)-tert-butyl-4-ethyl-4-(3-(3-methyl-4-(2-methylmorpholine-4-carbonyl)phenylamino)-4-oxo-4,5-dihydropyrazolo[4,3-c]pyridin-1-yl) piperidine-1-carboxylate] | 0.62 nM | 0.57 nM |
| CCC1(n2nc(Nc3ccc4c(c3)CN(C3CCN(C)CC3)S4(=O)=O)c3c(=O)[nH]ccc32)CCN(C(=O)OC(C)(C)C)CC1 [Example 2-30, tert-butyl 4-ethyl-4-(3-((2-(1-methylpiperidin-4-yl)-1,1-dioxido-2,3-dihydrobenzo [d]isothiazol-5-yl)amino)-4-oxo-4,5-dihydro-1H-pyrazolo [4,3-c]pyridin-1-yl) piperidine-1-carboxylate] | 0.29 nM | 0.36 nM |
| CCC1(n2nc(Nc3ccc(C(=O)N4CCOCC4)c(C)c3)c3c(=O)[nH]ccc32)CCN(C(=O)OC(C)(C)C)CC1 [Example 2-9, tert-butyl 4-ethyl-4-(3-((3-methyl-4-(morpholine-4-carbonyl)phenyl)amino)-4-oxo-4,5-dihydro-1H-pyrazolo[4,3-c]pyridin-1-yl) piperidine-1-carboxylate] | 0.37 nM | 0.47 nM |
| CCC1(n2nc(Nc3ccc(C4CCN(CC(F)(F)F)CC4)cc3)c3c(=O)[nH]ccc32)CCN(C(=O)OC(C)(C)C)CC1 [Example 2-3, tert-butyl 4-ethyl-4-(4-oxo-3-(4-(1-(2,2,2-trifluoroethyl)piperidin-4-yl)phenylamino)-4,5-dihydropyrazolo [4,3-c]pyridin-1-yl) piperidine-1-carboxylate] | 10.2 nM | 71.3 nM |
| CCC1(n2nc(Nc3ccc4c(c3)CN(C(C)(C)C)S4(=O)=O)c3c(=O)[nH]ccc32)CCN(C(=O)OC(C)(C)C)CC1 [Example 1-2] | 2.86 nM | 3.4 nM |
| CCC1(n2nc(Nc3ccnc(F)c3)c3c(=O)[nH]ccc32)CCN(C(=O)OC(C)(C)C)CC1 [Example 2-40, tert-butyl 4-ethyl-4-(3-(2-fluoropyridin-4-ylamino)-4-oxo-4,5-dihydropyrazolo[4,3-c]pyridin-1-yl) piperidine-1-carboxylate] | 0.38 nM | 5.24 nM |
| CCC1(n2nc(Nc3ccc([C@@]4(C(F)(F)F)CCCN4)cc3)c3c(=O)[nH]ccc32)CCN(C(=O)OC(C)(C)C)CC1 (single isomer, unassigned) [Example 2-34, (R or S)-tert-butyl 4-ethyl-4-(4-oxo-3-(4-(2-(trifluoromethyl)pyrrolidin-2-yl)phenylamino)-4,5-dihydropyrazolo[4,3-c]pyridin-1-yl) piperidine-1-carboxylate] | 2.5 nM | 2.5 nM |
